Test results reported in the pKa sets of Baltruschat and Czodrowski (2020).

Settings: acidic group

Structure (SMILES)	pKa
O=C(O)c1[nH]c[nH+]c1C(=O)[O-]	4.27
Cc1cc(C[NH3+])c(O)c(C[NH3+])c1	7
Cc1ccc(S(=O)(=O)NCC(=O)[O-])cc1	11.4
NC1=[NH+][C@H]2C[C@@H](N1)[NH2+][C@@H]2C(=O)O	1.3
Oc1ccc2cccc(I)c2c1	8.98
O=C([O-])c1cc(O)c(O)c(C(=O)O)[o+]1	1.8
CCN(CC)Cc1cc(F)ccc1O	10.8
Cc1cc(C(=O)O)ccc1Br	4.03
CCCCN[N+](=O)[O-]	6.48
N#CCC(C(=O)O)c1ccccc1 (configuration not stated)	3.44
CS(=O)(=O)Nc1ccc(CC([NH3+])C(=O)O)cc1 (configuration not stated)	3.15
Cc1nc(Cc2ccccc2)c(O)o1	10.3
O=[N+]([O-])c1ccc(O)cc1	7.13
Brc1ccc([P+](c2ccccc2)(c2ccccc2)C2c3ccccc3-c3ccccc32)cc1	8.67
Oc1cccc2cn[nH]c12	8.6
CC(C)c1ccc(Br)c(O)c(=O)c1	6.28
O=C(NO)c1ccccc1	8.71
OC(c1ccncc1)(c1ccccn1)c1ccccn1	13.1
Cc1ccc(Br)c(O)c(=O)c1	6.3
Oc1cccc2ccnnc12	8.25
CN1CC(O)C2=C/C(=N\O)C(=O)C=C21 (configuration not stated)	8.6
O=C(O)CCc1ccc(Cl)cc1	4.65
CCC[Se](=O)O	5.25
Cc1c(Cn2cc[nH+]c2)sc2cc(C(=O)O)ccc12	3.59
NNC(=O)CF	11.3
CC(=O)c1ccc(Cl)cc1	18.1
C/C(O)=N\[N+](C)(C)C	5.42
COP(=O)([O-])NS(C)(=O)=O	6.55
NC(=O)[C@H](N)[C@H](O)C(=O)O	2.31

Same assay, conditions: basic group

Structure (SMILES)	pKa
COc1ccc(C2CCCN2C)cc1 (configuration not stated)	8.9
C[NH+](C)CCN1C=Nc2cccc3cccc1c23	4.64
CC(C)(N)c1ccccc1	10.4
CSc1cc(C)ncn1	3.25
CN1[C@@H]2CC[C@H]1C[C@H](OC(=O)C(O)c1ccccc1)C2 (some centres not stated)	9.61
Nc1ccc([N+](=O)[O-])c2ccccc12	0.53
C/C=C1/CN2[C@@H]3C[C@H]1C1[C@@H](O)[C@]4(C[C@@H]12)c1ccccc1N(C)[C@@H]34 (some centres not stated)	8.5
Cc1cccc(C)n1	6.85
C[C@@H](CC(C#N)(c1ccccc1)c1ccccc1)N(C)C	8.31
CC(C)N[C@H](c1ccccc1)[C@H](O)c1ccccc1	11.8
Cc1ncc[nH]1	7.97
O=[PH]([O-])C([NH2+]Cc1cccnc1)c1ccccc1O (configuration not stated)	3.25
CCCCCCNCc1ccc(C)cc1	10.2
Cc1ccc([N+](=O)[O-])c2c(NCCC[NH+](C)C)ccnc12	6.84
COc1ccc(I)cc1C(=O)N[C@@H]1C[C@H]2CC[C@@H](C1)N2Cc1ccccc1	8.79
CN(C)Cc1ccccc1CO	8.78
CCOC(=O)C(C)N (configuration not stated)	7.8
NC(Cc1cccnc1)C(=O)[O-] (configuration not stated)	9.26
CCc1cc(Cl)n(C)c2nc3ccccc3c1-2	7.46

Structure (SMILES)	pKa
CCN(CC#N)CC#N	3.98
CN(C)Cc1cc(Br)ccc1[O-]	10.7
C=CC(=O)NC(C)(C)CCN(CC)CC	10.1
CNc1ccncn1	6.12
NCCCCN	10.6
Oc1cccc2ccnnc12	2.72
O=C(/C=C1/C=CC=CN1)c1ccccc1	6.08
Clc1ccc(C(Cn2ccnc2)OCc2ccc(Sc3ccccc3)cc2)c(Cl)c1 (configuration not stated)	6.54
O=C1CN2CCC1CC2	7.27
CCCN(CCO)CC(C)O (configuration not stated)	8.9
CC(C)(C)C(=O)n1cnc2ccccc21	2
NC(=O)Cc1cccnc1	4.72
C[n+]1ccccc1-c1ccccn1	0.31
CN(C)c1ccc(/N=N/c2ccccc2)cc1	2.85
CNC(=O)c1ccccn1	2.4
C[Si](C)(C)CCN	11
CC1CCN(C)C(C)(C)C1 (configuration not stated)	10.2
CN1[C@H]2CC=C(C(=O)[O-])[C@@H]1CC2	10.8
NC(=O)[C@H](N)[C@H](O)C(=O)O	7.17
